Several values for one entry are separate records, joined by “and”; a condition that tells them apart may be missing. Equal entries are not always repeated. Inconclusive results and toxic doses are left out. Rule as the data show it: active = T/C of 150% or more; inactive = T/C below 125%.
Test system: L1210 leukemia ip in BDF1 mice, survival T/C
Assay: NCI In Vivo Anticancer Drug Screen. Data for tumor model L1210 Leukemia (intraperitoneal) in B6D2F1 (BDF1) mice
Settings: endpoint: mean survival time, higher = longer survival
Outline: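 Value reflects the ratio of survival in compound-treated mice to survival in vehicle-treated controls, with both groups carrying the same transplanted tumor.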

[1] = dose: 100.0 mg/kg/injection, schedule: Q01DX009 (ip), vehicle: Klucel (hydroxypropylcellulose) (HPC)
[2] = dose: 100.0 mg/kg/injection, schedule: Q01DX001 (ip), vehicle: carboxymethylcellulose (CMC)
[3] = dose: 200.0 mg/kg/injection, schedule: Q01DX001 (ip), vehicle: carboxymethylcellulose (CMC)
[4] = dose: 400.0 mg/kg/injection, schedule: Q01DX001 (ip), vehicle: carboxymethylcellulose (CMC)
[5] = dose: 100.0 mg/kg/injection, schedule: Q04DX003 (ip), vehicle: Klucel (hydroxypropylcellulose) (HPC)
[6] = dose: 200.0 mg/kg/injection, schedule: Q04DX003 (ip), vehicle: Klucel (hydroxypropylcellulose) (HPC)
[7] = dose: 400.0 mg/kg/injection, schedule: Q04DX003 (ip), vehicle: Klucel (hydroxypropylcellulose) (HPC)
[8] = dose: 50.0 mg/kg/injection, schedule: Q01DX001 (ip), vehicle: carboxymethylcellulose (CMC)
[9] = dose: 100.0 mg/kg/injection, schedule: Q01DX001 (ip), vehicle: saline
[10] = dose: 400.0 mg/kg/injection, schedule: Q01DX001 (ip), vehicle: saline
[11] = dose: 100.0 mg/kg/injection, schedule: Q01DX009 (ip), vehicle: saline with Tween-80
[12] = dose: 200.0 mg/kg/injection, schedule: Q01DX009 (ip), vehicle: saline with Tween-80
[13] = dose: 400.0 mg/kg/injection, schedule: Q01DX009 (ip), vehicle: saline with Tween-80
[14] = dose: 50.0 mg/kg/injection, schedule: Q01DX009 (ip), vehicle: saline with Tween-80
[15] = dose: 50.0 mg/kg/injection, schedule: Q04DX003 (ip), vehicle: saline with Tween-80
[16] = dose: 100.0 mg/kg/injection, schedule: Q01DX001 (ip), vehicle: saline with Tween-80
[17] = dose: 100.0 mg/kg/injection, schedule: Q04DX003 (ip), vehicle: saline with Tween-80
[18] = dose: 200.0 mg/kg/injection, schedule: Q01DX001 (ip), vehicle: saline with Tween-80
[19] = dose: 200.0 mg/kg/injection, schedule: Q04DX003 (ip), vehicle: saline with Tween-80

Measured: T/C

Cc1cccc(NNC(N)=O)c1
inactive: dose: 55.0 mg/kg/injection, schedule: Q01DX Z (ip), vehicle: saline 103 % of control | dose: 83.0 mg/kg/injection, schedule: Q01DX Z (ip), vehicle: saline 97 % of control | dose: 125.0 mg/kg/injection, schedule: Q01DX Z (ip), vehicle: saline 101 % of control

CCCOC(=O)Nc1cccc2ccccc12
inactive: dose: 12.5 mg/kg/injection, schedule: Q04DX002 (ip), vehicle: Klucel (hydroxypropylcellulose) (HPC) 101 % of control | dose: 25.0 mg/kg/injection, schedule: Q04DX002 (ip), vehicle: Klucel (hydroxypropylcellulose) (HPC) 86 % of control | dose: 50.0 mg/kg/injection, schedule: Q04DX002 (ip), vehicle: Klucel (hydroxypropylcellulose) (HPC) 96 % of control | dose: 100.0 mg/kg/injection, schedule: Q04DX002 (ip), vehicle: Klucel (hydroxypropylcellulose) (HPC) 101 % of control

O=C(/C=C1\C(=O)Nc2ccccc21)/C=C1/C(=O)Nc2ccccc21
inactive: [1] 93 % of control

O=c1[nH]c2cc(Br)ccc2c2ccccc12
inactive: [2] 95 % of control | [3] 101 % of control | [4] 94 % of control

CCCCCCCCCCCCOc1ccc(C=O)cc1OC
inactive: [5] 95 % of control | [6] 98 % of control | [7] 106 % of control

O=C1c2cccnc2C(=O)c2c(O)ccc(O)c21
inactive: [8] 100 % of control | [2] 108 % of control | [3] 100 % of control | [4] 108 % of control

CCOC(=O)C(C#N)=C([SH2+])[SH2+].CCOC(=O)C(C#N)=C([SH2+])[SH2+].[Cu+2].c1ccc(C[P+](c2ccccc2)(c2ccccc2)c2ccccc2)cc1
inactive: [9] 92 % of control | dose: 100.0 mg/kg/injection, schedule: Q04DX003 (ip), vehicle: saline 102 % of control | dose: 200.0 mg/kg/injection, schedule: Q01DX001 (ip), vehicle: saline 87 % of control | dose: 200.0 mg/kg/injection, schedule: Q04DX003 (ip), vehicle: saline 97 % of control | [10] 89 % of control | dose: 400.0 mg/kg/injection, schedule: Q04DX003 (ip), vehicle: saline 91 % of control

Cc1ccccc1N1CCN(c2c3c(nc4ccccc24)CCCCC3)CC1
inactive: [9] 93 % of control | [10] 93 % of control

O=C(Nc1ccccc1C(=O)c1ccccn1)c1ccccc1
inactive: [5] 104 % of control | [6] 98 % of control | [7] 101 % of control

C=CC1CC=CCC1 (stereo not drawn) (tested in a mixture with another compound)
inactive: [8] 98 % of control | [2] 98 % of control | [3] 98 % of control | [4] 108 % of control

CN(Cc1ccccc1O)C1CCCCC1
inactive: dose: 75.0 mg/kg/injection, schedule: Q01DX001 (ip), vehicle: saline 95 % of control

Cc1cc(O)ccc1SC#N
inactive: dose: 3.12 mg/kg/injection, schedule: Q04DX003 (ip), vehicle: saline + alcohol 97 % of control | dose: 6.25 mg/kg/injection, schedule: Q04DX003 (ip), vehicle: saline + alcohol 101 % of control | dose: 12.5 mg/kg/injection, schedule: Q04DX003 (ip), vehicle: saline + alcohol 101 % of control

CC(=O)Oc1ccc(C2OC(=O)c3ccccc3N2C(C)=O)cc1 (stereo not drawn)
inactive: [11] 101 % of control | [12] 101 % of control | [13] 92 % of control

O=NSC(c1ccccc1)(c1ccccc1)c1ccccc1
inactive: dose: 50.0 mg/kg/injection, schedule: Q01DX009 (ip), vehicle: Klucel (hydroxypropylcellulose) (HPC) 94 % of control | [1] 89 % of control | dose: 200.0 mg/kg/injection, schedule: Q01DX009 (ip), vehicle: Klucel (hydroxypropylcellulose) (HPC) 93 % of control

O=S1(=O)C(Cl)=C(Cl)C2C3CC(C(Cl)C3Cl)C21 (stereo not drawn)
inactive: dose: 50.0 mg/kg/injection, schedule: Q01DX009 (ip), vehicle: acetone 95 % of control | dose: 100.0 mg/kg/injection, schedule: Q01DX009 (ip), vehicle: acetone 93 % of control | dose: 100.0 mg/kg/injection, schedule: Q04DX003 (ip), vehicle: acetone 92 % of control | dose: 200.0 mg/kg/injection, schedule: Q01DX009 (ip), vehicle: acetone 98 % of control | dose: 200.0 mg/kg/injection, schedule: Q04DX003 (ip), vehicle: acetone 101 % of control | dose: 400.0 mg/kg/injection, schedule: Q04DX003 (ip), vehicle: acetone 92 % of control

N=c1c2ncn(C3CCCC3)c2ncn1O
inactive: [14] 114 % of control | [15] 106 % of control | [16] 98 % of control | [11] 103 % of control | [17] 95 % of control | [18] 98 % of control | [12] 115 % of control | [19] 94 % of control

CN(C)c1ccc(-c2cccc[n+]2C)cc1
inactive: dose: 1.56 mg/kg/injection, schedule: Q01DX009 (ip), vehicle: saline 104 % of control | dose: 3.13 mg/kg/injection, schedule: Q01DX009 (ip), vehicle: saline 103 % of control | dose: 6.25 mg/kg/injection, schedule: Q01DX009 (ip), vehicle: saline 104 % of control

Nc1[nH]c(=O)ncc1-c1ccccc1Cl
inactive: dose: 25.0 mg/kg/injection, schedule: Q01DX009 (ip), vehicle: saline with Tween-80 88 % of control | dose: 25.0 mg/kg/injection, schedule: Q04DX002 (ip), vehicle: saline with Tween-80 92 % of control and 100 % of control | dose: 25.0 mg/kg/injection, schedule: Q04DX003 (ip), vehicle: saline with Tween-80 93 % of control | dose: 50.0 mg/kg/injection, schedule: Q01DX001 (ip), vehicle: saline with Tween-80 101 % of control | [14] 91 % of control | dose: 50.0 mg/kg/injection, schedule: Q04DX002 (ip), vehicle: saline with Tween-80 101 % of control and 103 % of control | [15] 92 % of control | [16] 101 % of control | [11] 94 % of control and 91 % of control | [17] 103 % of control | [19] 101 % of control

CC(=O)c1cccc(NC(=O)Oc2cc(C)c(Cl)c(C)c2)c1
inactive: [16] 97 % of control | [11] 94 % of control and 92 % of control | dose: 100.0 mg/kg/injection, schedule: Q04DX002 (ip), vehicle: saline with Tween-80 94 % of control and 101 % of control | [17] 93 % of control | [18] 100 % of control | [12] 88 % of control and 89 % of control | dose: 200.0 mg/kg/injection, schedule: Q04DX002 (ip), vehicle: saline with Tween-80 93 % of control and 89 % of control | [19] 87 % of control | dose: 400.0 mg/kg/injection, schedule: Q01DX001 (ip), vehicle: saline with Tween-80 98 % of control | [13] 91 % of control | dose: 400.0 mg/kg/injection, schedule: Q04DX002 (ip), vehicle: saline with Tween-80 96 % of control and 101 % of control | dose: 400.0 mg/kg/injection, schedule: Q04DX003 (ip), vehicle: saline with Tween-80 90 % of control

From PubChem BioAssay AID248 (DTP/NCI, 2004)
